Laboratory results: PubChem BioAssay AID328 (DTP/NCI, 2004)
Values joined by “and” are separate entries in the source; they are usually repeats but may differ in a detail not shown here. Identical values can stand only once. Toxic doses and inconclusive results are not listed.

Test system: BDF1 mice, P388 leukemia ip, median survival T/C
Experiment: NCI In Vivo Anticancer Drug Screen. Data for tumor model P388 Leukemia (intraperitoneal) in B6D2F1 (BDF1) mice
Conditions: endpoint: median survival time, higher = longer survival
How it was run: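 Steps: implant the tumour, treat one group with compound and another with vehicle, record survival, then divide treated by control.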

[1] = dose: 25.0 mg/kg/injection, schedule: Q01DX009 (ip), vehicle: saline with Tween-80
[2] = dose: 50.0 mg/kg/injection, schedule: Q01DX009 (ip), vehicle: saline with Tween-80
[3] = dose: 100.0 mg/kg/injection, schedule: Q01DX009 (ip), vehicle: saline with Tween-80
[4] = dose: 25.0 mg/kg/injection, schedule: Q01DX009 (ip), vehicle: saline
[5] = dose: 50.0 mg/kg/injection, schedule: Q01DX009 (ip), vehicle: saline
[6] = dose: 100.0 mg/kg/injection, schedule: Q01DX009 (ip), vehicle: saline
[7] = dose: 50.0 mg/kg/injection, schedule: Q04DX003 (ip), vehicle: saline
[8] = dose: 100.0 mg/kg/injection, schedule: Q04DX003 (ip), vehicle: saline

c1cc(CC2CO2)c2c(c1CC1CO1)OCCOCCOCCOCCO2 (stereo not drawn)
T/C (dose: 15.0 mg/kg/injection, schedule: Q01DX009 (ip), vehicle: saline + alcohol): 100 % of control | T/C (dose: 30.0 mg/kg/injection, schedule: Q01DX009 (ip), vehicle: saline + alcohol): 106 % of control | T/C (dose: 60.0 mg/kg/injection, schedule: Q01DX009 (ip), vehicle: saline + alcohol): 109 % of control | T/C (dose: 120.0 mg/kg/injection, schedule: Q01DX009 (ip), vehicle: saline + alcohol): 111 % of control

Clc1ccc(-c2ncc3cnccn23)cc1Cl
T/C (dose: 0.78 mg/kg/injection, schedule: Q04DX003 (ip), vehicle: saline with Tween-80): 92 % of control | T/C (dose: 1.56 mg/kg/injection, schedule: Q01DX009 (ip), vehicle: saline with Tween-80): 89 % of control | T/C (dose: 1.56 mg/kg/injection, schedule: Q04DX003 (ip), vehicle: saline with Tween-80): 90 % of control | T/C (dose: 3.12 mg/kg/injection, schedule: Q01DX009 (ip), vehicle: saline with Tween-80): 95 % of control | T/C (dose: 3.12 mg/kg/injection, schedule: Q04DX003 (ip), vehicle: saline with Tween-80): 94 % of control | T/C (dose: 6.25 mg/kg/injection, schedule: Q01DX009 (ip), vehicle: saline with Tween-80): 95 % of control | T/C (dose: 6.25 mg/kg/injection, schedule: Q04DX003 (ip), vehicle: saline with Tween-80): 100 % of control | T/C (dose: 12.5 mg/kg/injection, schedule: Q01DX009 (ip), vehicle: saline with Tween-80): 99 % of control | T/C [1]: 100 % of control | T/C [2]: 100 % of control

C=Cn1ccnc1C(O)(c1ccccc1)c1ccc(C(C)(C)C)cc1 (stereo not drawn)
T/C [2]: 93 % of control | T/C [3]: 90 % of control | T/C (dose: 200.0 mg/kg/injection, schedule: Q01DX009 (ip), vehicle: saline with Tween-80): 93 % of control

Cc1ccc(SS(=O)(=O)c2ccc(C)cc2)cc1
T/C (dose: 25.0 mg/kg/injection, schedule: Q01DX009 (ip), vehicle: saline sonified): 108 % of control | T/C (dose: 50.0 mg/kg/injection, schedule: Q01DX009 (ip), vehicle: saline sonified): 117 % of control | T/C (dose: 100.0 mg/kg/injection, schedule: Q01DX009 (ip), vehicle: saline sonified): 117 % of control

Cc1cccc(NC(=O)Nc2ccc(Oc3ccccc3Cl)c(S(=O)(=O)O)c2)c1
T/C [4]: 90 % of control | T/C [5]: 90 % of control | T/C [6]: 90 % of control

COCCOP(=O)(N1CC1)N1CC1
T/C (dose: 33.0 mg/kg/injection, schedule: Q04DX003 (ip), vehicle: saline): 190 % of control | T/C [7]: 236 % of control | T/C (dose: 75.0 mg/kg/injection, schedule: Q04DX003 (ip), vehicle: saline): 272 % of control | T/C [8]: 118 % of control

COc1cc2cc(c1Cl)N(C)C(=O)CC(OC(=O)C(F)(F)F)C1(C)OC1C(C)C1CC(O)(NC(=O)O1)C(OC)C=C/C=C(\C)C2 (stereo not drawn)
T/C (dose: 0.8 micrograms/kg/injection, schedule: Q01DX009 (ip), vehicle: saline + alcohol): 110 % of control | T/C (dose: 1.5 micrograms/kg/injection, schedule: Q01DX009 (ip), vehicle: saline + alcohol): 100 % of control | T/C (dose: 1.8 micrograms/kg/injection, schedule: Q01DX009 (ip), vehicle: saline + alcohol): 107 % of control | T/C (dose: 3.1 micrograms/kg/injection, schedule: Q01DX009 (ip), vehicle: saline + alcohol): 98 % of control and 100 % of control | T/C (dose: 6.2 micrograms/kg/injection, schedule: Q01DX009 (ip), vehicle: saline + alcohol): 98 % of control and 108 % of control | T/C (dose: 12.5 micrograms/kg/injection, schedule: Q01DX009 (ip), vehicle: saline + alcohol): 96 % of control and 120 % of control | T/C (dose: 25.0 micrograms/kg/injection, schedule: Q01DX009 (ip), vehicle: saline + alcohol): 96 % of control | T/C (dose: 50.0 micrograms/kg/injection, schedule: Q01DX009 (ip), vehicle: saline + alcohol): 107 % of control | T/C (dose: 100.0 micrograms/kg/injection, schedule: Q01DX009 (ip), vehicle: saline + alcohol): 91 % of control and 108 % of control | T/C (dose: 200.0 micrograms/kg/injection, schedule: Q01DX009 (ip), vehicle: saline + alcohol): 91 % of control | T/C (dose: 400.0 micrograms/kg/injection, schedule: Q01DX009 (ip), vehicle: saline + alcohol): 117 % of control

NNC(=O)c1ccc(Cl)cc1Nc1ccc(F)cc1
T/C [7]: 104 % of control | T/C [8]: 100 % of control

CCCC1CC[N-]CC1.CCCC1CC[N-]CC1.[Cl][Pd][Cl]
T/C (dose: 12.5 mg/kg/injection, schedule: Q04DX003 (ip), vehicle: water): 95 % of control | T/C (dose: 25.0 mg/kg/injection, schedule: Q01DX009 (ip), vehicle: water): 114 % of control | T/C (dose: 50.0 mg/kg/injection, schedule: Q01DX009 (ip), vehicle: water): 114 % of control | T/C (dose: 100.0 mg/kg/injection, schedule: Q04DX003 (ip), vehicle: water): 90 % of control and 112 % of control and 120 % of control | T/C (dose: 200.0 mg/kg/injection, schedule: Q04DX003 (ip), vehicle: water): 95 % of control and 99 % of control and 120 % of control | T/C (dose: 300.0 mg/kg/injection, schedule: Q04DX003 (ip), vehicle: water): 96 % of control

CC(=O)OC1CCC2(C)C(CCc3ccoc3)=C(C)C(=O)CC2C1(C)C (stereo not drawn)
T/C (dose: 10.0 mg/kg/injection, schedule: Q01DX009 (ip), vehicle: saline + alcohol): 105 % of control | T/C (dose: 20.0 mg/kg/injection, schedule: Q01DX009 (ip), vehicle: saline + alcohol): 115 % of control | T/C (dose: 40.0 mg/kg/injection, schedule: Q01DX009 (ip), vehicle: saline + alcohol): 105 % of control

NNc1nncn2c1cc1ccccc12
T/C [2]: 86 % of control | T/C [3]: 107 % of control

CCOC(=O)c1[nH]cnc1/N=N/N(C)C
T/C (dose: 26.4 mg/kg/injection, schedule: Q01DX009 (ip), vehicle: saline with Tween-80): 175 % of control | T/C (dose: 60.0 mg/kg/injection, schedule: Q01DX009 (ip), vehicle: saline with Tween-80): 87 % of control

COC1=C2CCCCC2=[N+]2CCc3ccccc3C2C1 (stereo not drawn)
T/C (dose: 25.0 mg/kg/injection, schedule: Q01DX001 (ip), vehicle: saline sonified): 100 % of control | T/C (dose: 50.0 mg/kg/injection, schedule: Q01DX001 (ip), vehicle: saline sonified): 95 % of control | T/C (dose: 100.0 mg/kg/injection, schedule: Q01DX001 (ip), vehicle: saline sonified): 95 % of control

O=C(O)CC[S-].[Ag+]
T/C [1]: 90 % of control | T/C [2]: 90 % of control | T/C [3]: 86 % of control

Cc1ccc(CNc2cccnc2)cc1
T/C (dose: 50.0 mg/kg/injection, schedule: Q01DX009 (ip), vehicle: other): 95 % of control | T/C (dose: 100.0 mg/kg/injection, schedule: Q01DX009 (ip), vehicle: other): 104 % of control | T/C [3]: 100 % of control | T/C (dose: 200.0 mg/kg/injection, schedule: Q01DX009 (ip), vehicle: other): 100 % of control | T/C (dose: 400.0 mg/kg/injection, schedule: Q01DX009 (ip), vehicle: saline with Tween-80): 100 % of control

CC(C)(C)C([NH-])=O.CC(C)(C)C([NH-])=O.[Cl][Pt+2][Cl]
T/C (dose: 3.12 mg/kg/injection, schedule: Q01DX009 (ip), vehicle: saline): 88 % of control | T/C (dose: 6.25 mg/kg/injection, schedule: Q01DX009 (ip), vehicle: saline): 92 % of control | T/C (dose: 12.5 mg/kg/injection, schedule: Q01DX009 (ip), vehicle: saline): 108 % of control | T/C (dose: 12.5 mg/kg/injection, schedule: Q04DX003 (ip), vehicle: saline): 105 % of control | T/C [4]: 92 % of control | T/C (dose: 25.0 mg/kg/injection, schedule: Q04DX003 (ip), vehicle: saline): 107 % of control | T/C [5]: 94 % of control | T/C [7]: 98 % of control

CC(=O)Nc1ccc2c(c1)C[N+](C)(C1CCCCC1)CO2 (stereo not drawn)
T/C [1]: 109 % of control | T/C (dose: 25.0 mg/kg/injection, schedule: Q04DX003 (ip), vehicle: saline with Tween-80): 95 % of control | T/C [2]: 109 % of control | T/C (dose: 50.0 mg/kg/injection, schedule: Q04DX003 (ip), vehicle: saline with Tween-80): 91 % of control | T/C (dose: 100.0 mg/kg/injection, schedule: Q04DX003 (ip), vehicle: saline with Tween-80): 95 % of control

N=Cc1c(O)[nH]c(=O)[nH]c1=O
T/C [6]: 109 % of control | T/C [8]: 92 % of control | T/C (dose: 200.0 mg/kg/injection, schedule: Q01DX009 (ip), vehicle: saline): 109 % of control | T/C (dose: 200.0 mg/kg/injection, schedule: Q04DX003 (ip), vehicle: saline): 107 % of control | T/C (dose: 400.0 mg/kg/injection, schedule: Q01DX009 (ip), vehicle: saline): 118 % of control | T/C (dose: 400.0 mg/kg/injection, schedule: Q04DX003 (ip), vehicle: saline): 92 % of control
